A short description of data set [1]: Solubility determination. Conditions: for Sol6: pH 6; for Sol7: pH 7. How it is done:
Peptides (as TFA salts) were weighed out in a filter unit (Mini-UniPrep Syringeless Filter 0.45 μm, Whatman), and 0.1 M sodium diphosphate buffer at pH 6.4 or 7.0 was added to achieve 10 mg/ml final concentration. The peptide was dissolved by shaking the filter unit horizontally at 600 rpm for 2 hours at room temperature. The sample was filtered, to remove any insoluble particles and diluted to 1 mg/ml in 50% acetonitrile. The control was prepared by weighing out the corresponding peptide and dissolving it in 50% acetonitrile to final concentration of 1 mg/ml. Both the control and sample were analysed with reversed phase chromatography. The area under the peak of the sample was compared to the control and the solubility was calculated based on that ratio.
The pH was measured and recorded for each sample.
System: UltiMate 3000 UPLC, ThermoFisher
Mobile phase A: 5% acetonitrile, 95% water, 0.03% trifluoracetic acid.
Mobile phase B: 95% acetonitrile, 5% water, 0.03% trifluoracetic acid.
Gradient: 0-100% mobile phase B (2 mins.)
Column temperature: 50° C.

The target in data set [2] is T1, Human Neuropeptide Y2 Receptor (Homo sapiens, UniProt P49146).
T1 construct: purchased CHEMICON HTS066M
T1 sequence (P49146 1-381): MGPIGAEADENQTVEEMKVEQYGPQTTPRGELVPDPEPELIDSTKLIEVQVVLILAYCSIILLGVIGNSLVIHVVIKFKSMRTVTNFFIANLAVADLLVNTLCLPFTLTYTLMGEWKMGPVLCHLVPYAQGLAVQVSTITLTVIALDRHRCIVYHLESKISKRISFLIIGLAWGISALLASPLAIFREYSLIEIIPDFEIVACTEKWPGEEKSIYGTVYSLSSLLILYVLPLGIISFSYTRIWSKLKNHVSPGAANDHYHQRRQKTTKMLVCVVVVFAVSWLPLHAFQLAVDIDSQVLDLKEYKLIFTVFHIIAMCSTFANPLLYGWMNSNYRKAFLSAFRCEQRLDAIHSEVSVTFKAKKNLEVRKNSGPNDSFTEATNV
Description: Radioligand binding competition assay (RLB). Conditions: Table 3, 125I-PYY(1-36) competition; read-out: Ki. The protocol: The filtration RLB assay was carried out in 96-well plates in a final volume of 100 μl per well. Freeze-dried test peptides were dissolved in 100% dimethyl sulfoxide (DMSO) to stock solutions of 1 mM and serial dilutions were performed in assay buffer (50 mM HEPES, 5 mM MgCl2, 1 mM CaCl2, pH 7.4) containing 0.2% ovalbumin. […] Next, 80 μL membranes (HTS066M, ChemiSCREEN™ Human Neuropeptide Y2 Receptor Membrane Preparation, CHEMICON) were added to each well to give a final protein concentration of 0.5 μg/well. The plates were sealed and incubated at room temperature for 2 hours in a plate shaker set at 400 rpm. The incubation was stopped by vacuum filtration onto 0.5% polyethylene amine (PE) presoaked GF/C filters using a 96-well FilterMate™ harvester (Perkin Elmer) followed by four washes with 300 μl/well ice-cold wash buffer (50 mM HEPES, 500 mM NaCl, pH7.4). Filter plates were then dried for 60 min at room temperature and the bottom of the plates was sealed with backing tape UniFilter-96. Finally, 50 μl/well scintillation counter cocktail (Microscint20, Packard) was added and the radioactivity was counted in the Packard TopCount NXT scintillation counter. IC50 values (the half maximal inhibitory concentration of the agonist) were calculated by nonlinear regression analysis of sigmoidal dose-response curves.

In the case of `CC(C)CC(=O)N[C@@H](C)C(=O)N1CCC[C@H]1C(=O)N[C@@H](CCC(=O)O)C(=O)N[C@@H](CCCCNC(=O)CCCCCNC(=O)CC[C@H](NC(=O)CCCCCCCCCCCCCCCCC(=O)O)C(=O)O)C(=O)N1CCC[C@H]1C(=O)N[C@@H](CCC(=O)O)C(=O)N[C@@H](C)C(=O)N[C@@H](C)C(=O)N[C@@H](C)C(=O)N[C@@H](CCC(=O)O)C(=O)N1CCC[C@H]1C(=O)N[C@@H](CCC(=O)O)C(=O)N[C@@H](CCC(=O)O)C(=O)N[C@@H](CC(C)C)C(=O)N[C@@H](CCC(N)=O)C(=O)N[C@@H](CCCNC(=N)N)C(=O)N[C@@H](Cc1ccc(O)cc1)C(=O)N[C@@H](Cc1ccc(O)cc1)C(=O)N[C@H](C(=O)N[C@@H](C)C(=O)N[C@@H](CC(C)C)C(=O)N[C@@H](CCCNC(=N)N)C(=O)N[C@@H](Cc1c[nH]cn1)C(=O)N[C@@H](Cc1ccc(O)cc1)C(=O)N[C@@H](Cc1ccc(O)cc1)C(=O)N[C@@H](CC(N)=O)C(=O)N[C@@H](Cc1c[nH]c2ccccc12)C(=O)N[C@@H](CC(C)C)C(=O)N[C@H](C(=O)N[C@@H](CCCNC(=N)N)C(=O)N[C@@H](CCC(N)=O)C(=O)N[C@@H](CCCNC(=N)N)C(=O)N[C@@H](Cc1ccc(O)cc1)C(N)=O)[C@@H](C)O)C(C)C` [Compound 127, N{alpha-4}-(3-methylbutanoyl)-N{epsilon-7}-(6-[(4S)-4-carboxy-4-(17-carboxyheptadecanamido)butanamido]hexanoyl)-[4A,7K,9E,10A,11A,13E,18Q,22V,23A,28Y,30W,31L]-hPYY(4-36)], in data set [1], the “Sol6” value is 6.5 mg/mL and the “Sol7” value was greater than 10.0 mg/mL. Moreover, in data set [2], the Ki was found to be 3.36 nM.

For the compound `CC[C@H](C)[C@H](NC(=O)[C@H](CCC(=O)O)NC(=O)[C@H](CCC(=O)O)NC(=O)[C@@H]1CCCN1C(=O)[C@H](CO)NC(=O)[C@H](C)NC(=O)[C@H](CC(=O)O)NC(=O)[C@H](CCC(=O)O)NC(=O)[C@H](CCC(=O)O)NC(=O)[C@@H]1CCCN1C(=O)[C@H](CCCCNC(=O)CCCCCNC(=O)CC[C@H](NC(=O)CCCCCCCCCCCCCCCCC(=O)O)C(=O)O)NC(=O)[C@H](CCC(=O)O)NC(=O)[C@@H]1CCCN1C(=O)[C@H](C)NC(=O)CC(C)C)C(=O)N[C@@H](CCC(N)=O)C(=O)N[C@@H](CCCNC(=N)N)C(=O)N[C@@H](Cc1ccc(O)cc1)C(=O)N[C@@H](Cc1ccc(O)cc1)C(=O)N[C@H](C(=O)N[C@@H](CCC(N)=O)C(=O)N[C@@H](CC(C)C)C(=O)N[C@@H](CCCNC(=N)N)C(=O)N[C@@H](Cc1c[nH]cn1)C(=O)N[C@@H](Cc1ccc(O)cc1)C(=O)N[C@@H](Cc1ccc(O)cc1)C(=O)N[C@@H](CC(N)=O)C(=O)N[C@@H](Cc1c[nH]c2ccccc12)C(=O)N[C@@H](CC(C)C)C(=O)N[C@H](C(=O)N[C@@H](CCCNC(=N)N)C(=O)N[C@@H](CCC(N)=O)C(=O)N[C@@H](CCCNC(=N)N)C(=O)N[C@@H](Cc1ccc(O)cc1)C(N)=O)[C@@H](C)O)C(C)C` [Compound 93, N{alpha-4}-(3-methylbutanoyl)-N{epsilon-7}-(6-[(4S)-4-carboxy-4-(17-carboxyheptadecanamido)butanamido]hexanoyl)-[4A,7K,9E,17I,18Q,22V,23Q,28Y,30W,31L]-hPYY(4-36)], in data set [1], the “Sol6” value worked out at 9.4 mg/mL and the “Sol7” value stood at 9.7 mg/mL. In addition, the Ki in data set [2] was found to be 1.71 nM.

On to `CC(C)CC(=O)N[C@@H](C)C(=O)N1CCC[C@H]1C(=O)N[C@@H](CCC(=O)O)C(=O)N[C@@H](CCCCNC(=O)CCCCCNC(=O)CC[C@H](NC(=O)CCCCCCCCCCCCCCCCC(=O)O)C(=O)O)C(=O)N1CCC[C@H]1C(=O)N[C@@H](CCC(=O)O)C(=O)N[C@@H](CCC(=O)O)C(=O)N[C@@H](CC(C)C)C(=O)N[C@@H](C)C(=O)N[C@H](C(=O)N1CCC[C@H]1C(=O)N[C@@H](CCC(=O)O)C(=O)N[C@@H](CCC(=O)O)C(=O)N[C@@H](CC(C)C)C(=O)N[C@@H](CCC(N)=O)C(=O)N[C@@H](CCCNC(=N)N)C(=O)N[C@@H](Cc1ccc(O)cc1)C(=O)N[C@@H](Cc1ccc(O)cc1)C(=O)N[C@H](C(=O)N[C@@H](CO)C(=O)N[C@@H](CC(C)C)C(=O)N[C@@H](CCCNC(=N)N)C(=O)N[C@@H](Cc1c[nH]cn1)C(=O)N[C@@H](Cc1ccc(O)cc1)C(=O)N[C@@H](Cc1ccc(O)cc1)C(=O)N[C@@H](CC(N)=O)C(=O)N[C@@H](Cc1c[nH]c2ccccc12)C(=O)N[C@@H](CC(C)C)C(=O)N[C@H](C(=O)N[C@@H](CCCNC(=N)N)C(=O)N[C@@H](CCC(N)=O)C(=O)N[C@@H](CCCNC(=N)N)C(=O)N[C@@H](Cc1ccc(O)cc1)C(N)=O)[C@@H](C)O)C(C)C)[C@@H](C)O` [Compound 153, N{alpha-4}-(3-methylbutanoyl)-N{epsilon-7}-(6-[(4S)-4-carboxy-4-(17-carboxyheptadecanamido)butanamido]hexanoyl)-[4A,7K,9E,11L,13T,18Q,22V,28Y,30W,31L]-hPYY(4-36)], for which, in data set [1], the “Sol6” value amounted to 6.0 mg/mL and the “Sol7” value worked out at 9.5 mg/mL. In addition, in data set [2], the Ki turned out to be 6.8 nM.

For `CC(C)CC(=O)N[C@@H](C)C(=O)N1CCC[C@H]1C(=O)N[C@@H](CCC(=O)O)C(=O)N[C@@H](CCCCNC(=O)CCCCCNC(=O)CC[C@H](NC(=O)CCCCCCCCCCCCCCCCC(=O)O)C(=O)O)C(=O)N1CCC[C@H]1C(=O)N[C@@H](CCC(=O)O)C(=O)N[C@@H](CCC(=O)O)C(=O)N[C@@H](CC(=O)O)C(=O)N[C@@H](CC(C)C)C(=O)N[C@H](C(=O)N1CCC[C@H]1C(=O)N[C@@H](CCC(=O)O)C(=O)N[C@@H](CCC(=O)O)C(=O)N[C@@H](CC(C)C)C(=O)N[C@@H](CCC(N)=O)C(=O)N[C@@H](CCCNC(=N)N)C(=O)N[C@@H](Cc1ccc(O)cc1)C(=O)N[C@@H](Cc1ccc(O)cc1)C(=O)N[C@H](C(=O)N[C@@H](CO)C(=O)N[C@@H](CC(C)C)C(=O)N[C@@H](CCCNC(=N)N)C(=O)N[C@@H](Cc1c[nH]cn1)C(=O)N[C@@H](Cc1ccc(O)cc1)C(=O)N[C@@H](Cc1ccc(O)cc1)C(=O)N[C@@H](CC(N)=O)C(=O)N[C@@H](Cc1c[nH]c2ccccc12)C(=O)N[C@@H](CC(C)C)C(=O)N[C@H](C(=O)N[C@@H](CCCNC(=N)N)C(=O)N[C@@H](CCC(N)=O)C(=O)N[C@@H](CCCNC(=N)N)C(=O)N[C@@H](Cc1ccc(O)cc1)C(N)=O)[C@@H](C)O)C(C)C)[C@@H](C)O` [Compound 109, N{alpha-4}-(3-methylbutanoyl)-N{epsilon-7}-(6-[(4S)-4-carboxy-4-(17-carboxyheptadecanamido)butanamido]hexanoyl)-[4A,7K,9E,12L,13T,18Q,22V,28Y,30W,31L]-hPYY(4-36)], in data set [1], the “Sol6” value was 10.0 mg/mL and the “Sol7” value turned out to be 8.5 mg/mL. In data set [2], the inhibition constant (Ki) was determined as 14 nM.

With `CC(C)CC(=O)N[C@@H](C)C(=O)N1CCC[C@H]1C(=O)N[C@@H](CCC(=O)O)C(=O)N[C@@H](CCCCNC(=O)CCCCCNC(=O)CC[C@H](NC(=O)CCCCCCCCCCCCCCCCC(=O)O)C(=O)O)C(=O)N1CCC[C@H]1C(=O)N[C@@H](CCC(=O)O)C(=O)N[C@@H](CCC(=O)O)C(=O)N[C@@H](CC(=O)O)C(=O)N[C@@H](C)C(=O)N[C@@H](CCC(=O)O)C(=O)N1CCC[C@H]1C(=O)N[C@@H](CCC(=O)O)C(=O)N[C@@H](CCC(=O)O)C(=O)N[C@@H](CC(C)C)C(=O)N[C@@H](CCC(N)=O)C(=O)N[C@@H](CCC(=O)O)C(=O)N[C@@H](Cc1ccc(O)cc1)C(=O)N[C@@H](Cc1ccc(O)cc1)C(=O)N[C@H](C(=O)N[C@@H](CO)C(=O)N[C@@H](CC(C)C)C(=O)N[C@@H](CCCNC(=N)N)C(=O)N[C@@H](Cc1c[nH]cn1)C(=O)N[C@@H](Cc1ccc(O)cc1)C(=O)N[C@@H](Cc1ccc(O)cc1)C(=O)N[C@@H](CC(N)=O)C(=O)N[C@@H](Cc1c[nH]c2ccccc12)C(=O)N[C@@H](CC(C)C)C(=O)N[C@H](C(=O)N[C@@H](CCCNC(=N)N)C(=O)N[C@@H](CCC(N)=O)C(=O)N[C@@H](CCCNC(=N)N)C(=O)N[C@@H](Cc1ccc(O)cc1)C(N)=O)[C@@H](C)O)C(C)C` [Compound 138, N{alpha-4}-(3-methylbutanoyl)-N{epsilon-7}-(6-[(4S)-4-carboxy-4-(17-carboxyheptadecanamido)butanamido]hexanoyl)-[4A,7K,9E,13E,18Q,19E,22V,28Y,30W,31L]-hPYY(4-36)], in data set [1], the “Sol6” value stood at 9.9 mg/mL and the “Sol7” value was 9.5 mg/mL. Also, in data set [2], the Ki was 12.5 nM.

These data come from patent publication US12391737B2, “Soluble NPY2 receptor agonists” (Boehringer Ingelheim International GmbH, priority 2020, dated 2025).
